{"source": "ChEMBL document CHEMBL1201862", "about": "“PubChem BioAssay data set” (2004)", "key": {"[1]": {"test": "nonselective inhibitors of cellular cAMP signaling, dose response, counter-screen for MC4R biased antagonist project, cell-based, TR-FRET cAMP detection (AID 602305);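 also: U2OS cells stimulated with forskolin near its EC80 as the cAMP inducer; potency is for inhibition of forskolin-stimulated cAMP signaling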", "assay_type": "functional"}, "Melanocortin receptor 4": {"molecular_target": "Melanocortin receptor 4 (Homo sapiens, UniProt P32245)", "sequence (P32245 whole entry)": "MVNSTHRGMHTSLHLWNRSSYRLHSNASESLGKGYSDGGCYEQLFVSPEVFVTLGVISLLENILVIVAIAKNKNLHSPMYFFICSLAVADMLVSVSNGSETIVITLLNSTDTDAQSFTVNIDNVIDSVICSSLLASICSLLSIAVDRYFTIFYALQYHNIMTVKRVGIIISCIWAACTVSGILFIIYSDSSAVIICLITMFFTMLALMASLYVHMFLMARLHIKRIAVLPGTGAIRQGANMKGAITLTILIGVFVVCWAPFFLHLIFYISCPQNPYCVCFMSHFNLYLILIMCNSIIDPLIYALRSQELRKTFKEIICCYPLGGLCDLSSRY", "test": "MC4R antagonist potency on cAMP, dose response, cell-based, TR-FRET, biased antagonists (AID 602298);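 also: antagonist potency against agonist-stimulated cAMP production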", "assay_type": "functional"}, "[2]": {"molecular_target": "Potassium voltage-gated channel subfamily KQT member 2 (Rattus norvegicus, UniProt O88943)", "sequence (O88943 whole entry)": "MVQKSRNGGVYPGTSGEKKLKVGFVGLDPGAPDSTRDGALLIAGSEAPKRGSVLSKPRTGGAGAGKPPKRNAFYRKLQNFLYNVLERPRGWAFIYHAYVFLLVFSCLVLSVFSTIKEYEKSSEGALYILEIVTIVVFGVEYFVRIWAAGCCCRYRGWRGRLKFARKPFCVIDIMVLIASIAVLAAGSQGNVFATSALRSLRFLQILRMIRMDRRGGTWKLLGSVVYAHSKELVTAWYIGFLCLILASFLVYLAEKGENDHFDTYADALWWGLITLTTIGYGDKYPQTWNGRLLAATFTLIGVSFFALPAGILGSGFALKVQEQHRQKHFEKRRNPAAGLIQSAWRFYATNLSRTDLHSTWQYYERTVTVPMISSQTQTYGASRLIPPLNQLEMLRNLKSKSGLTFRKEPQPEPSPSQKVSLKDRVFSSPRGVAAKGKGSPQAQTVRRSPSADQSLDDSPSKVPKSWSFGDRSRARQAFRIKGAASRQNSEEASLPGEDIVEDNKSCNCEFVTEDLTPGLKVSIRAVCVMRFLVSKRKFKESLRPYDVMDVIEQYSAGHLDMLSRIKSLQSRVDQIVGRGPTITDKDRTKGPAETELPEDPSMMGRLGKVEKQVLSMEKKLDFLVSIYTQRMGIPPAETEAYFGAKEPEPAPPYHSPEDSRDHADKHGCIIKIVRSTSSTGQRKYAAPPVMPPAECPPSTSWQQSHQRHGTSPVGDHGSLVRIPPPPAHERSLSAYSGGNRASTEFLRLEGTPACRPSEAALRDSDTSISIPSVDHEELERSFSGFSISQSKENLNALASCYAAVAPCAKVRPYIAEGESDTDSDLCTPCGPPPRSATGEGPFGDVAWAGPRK", "test": "KCNQ2 potassium channel inhibitors, dose response, cell-based, automated electrophysiology, set II, rat KCNQ2 (AID 588637)", "assay_type": "functional"}, "HEK293 [3]": {"system": "HEK293", "test": "optical interference in Abeta FP readout, dose response, artefact control for IDE activator project, biochemical, fluorescence polarization (AID 588442)", "assay_type": "functional, cell-based", "settings": "Homo sapiens"}, "HEK293 [4]": {"system": "HEK293", "test": "HEK cell cytotoxicity by LDH release, dose response, cytotoxicity control for IDE activator project, fluorescence, HEK cells (AID 588440);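 also: cytotoxicity by LDH release measuring loss of membrane integrity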", "assay_type": "functional, cell-based", "settings": "Homo sapiens"}, "Insulin-degrading enzyme [5]": {"molecular_target": "T1, Insulin-degrading enzyme (Homo sapiens, UniProt P14735)", "T1 sequence (P14735 whole entry)": "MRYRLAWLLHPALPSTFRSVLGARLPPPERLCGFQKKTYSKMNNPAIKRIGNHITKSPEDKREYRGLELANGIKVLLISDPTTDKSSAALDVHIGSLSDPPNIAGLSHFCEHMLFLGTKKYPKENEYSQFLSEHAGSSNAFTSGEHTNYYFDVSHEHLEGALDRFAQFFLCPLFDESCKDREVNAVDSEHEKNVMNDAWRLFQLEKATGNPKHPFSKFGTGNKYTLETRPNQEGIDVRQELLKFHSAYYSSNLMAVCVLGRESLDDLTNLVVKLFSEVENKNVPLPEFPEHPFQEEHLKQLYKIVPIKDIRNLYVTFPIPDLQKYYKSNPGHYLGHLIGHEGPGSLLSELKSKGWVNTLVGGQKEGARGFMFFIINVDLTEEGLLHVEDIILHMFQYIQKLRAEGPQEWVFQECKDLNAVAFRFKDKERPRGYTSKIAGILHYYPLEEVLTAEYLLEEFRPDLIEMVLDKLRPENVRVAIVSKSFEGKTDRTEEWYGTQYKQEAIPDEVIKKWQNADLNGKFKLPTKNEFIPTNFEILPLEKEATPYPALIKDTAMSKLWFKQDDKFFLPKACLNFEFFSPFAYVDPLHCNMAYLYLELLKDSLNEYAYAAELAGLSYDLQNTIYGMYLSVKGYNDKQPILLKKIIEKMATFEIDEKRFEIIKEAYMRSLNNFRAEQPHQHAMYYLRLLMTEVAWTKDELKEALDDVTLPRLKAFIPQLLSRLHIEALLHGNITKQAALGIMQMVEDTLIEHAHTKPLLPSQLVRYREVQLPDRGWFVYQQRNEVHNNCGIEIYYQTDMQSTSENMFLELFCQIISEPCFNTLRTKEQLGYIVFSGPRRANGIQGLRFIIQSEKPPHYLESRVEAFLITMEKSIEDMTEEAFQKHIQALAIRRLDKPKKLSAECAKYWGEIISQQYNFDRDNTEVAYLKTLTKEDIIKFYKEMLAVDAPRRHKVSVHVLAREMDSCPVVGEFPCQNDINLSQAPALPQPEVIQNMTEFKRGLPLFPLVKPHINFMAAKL", "test": "activators of recombinant IDE enzyme, dose response, counter-screen for IDE activator project, biochemical, fluorescence polarization (AID 588681)"}, "Insulin-degrading enzyme [6]": {"molecular_target": "T1, Insulin-degrading enzyme", "test": "activators of endogenous IDE in HEK cells, dose response, cell-based, fluorescence polarization (AID 588439)", "assay_type": "functional"}}, "note": "Activity calls are given as the source filed them.", "data": [{"smiles": "Cc1ccc(-c2nn(-c3ccccc3)cc2NC(=O)CCl)cc1", "values": [{"measurement": "IC50", "setting": "[1]", "value": "> 64.6 µM (inactive)"}, {"measurement": "IC50", "setting": "Melanocortin receptor 4", "value": "> 7.18 µM (active)"}]}, {"smiles": "COc1ccccc1CNC(=O)C(CC(C)C)NC(=O)C1CCC(C)CC1", "note": "(configuration not stated)", "values": [{"measurement": "IC50", "setting": "[2]", "value": "0.21 µM (active)"}]}, {"smiles": "CCN(CC)CCNC(=O)C[S+]([O-])Cc1nc(-c2ccccc2Cl)oc1C", "note": "(configuration not stated)", "values": [{"measurement": "EC50", "setting": "HEK293 [3]", "value": "> 55.9 µM (inactive)"}, {"measurement": "IC50", "setting": "HEK293 [4]", "value": "> 89.2 µM (inactive)"}, {"measurement": "EC50", "setting": "Insulin-degrading enzyme [5]", "value": "> 54.7 µM (inactive)"}, {"measurement": "EC50", "setting": "Insulin-degrading enzyme [6]", "value": "> 54.7 µM (inactive)"}]}]}
